What all share (test): inhibition of tumour cell growth, NCI panel, 48 h
Assay [1] relates to ACHN.
Assay [2] deals with DU-145.
The test system of assay [3] is EKVX.
Assay [4] has as its system HOP-62.
In assay [5] the test system is K562.
Assay [6] has as its system LOX IMVI.
Assay [7] has as its system M14.
Assay [8] deals with MCF7.
In assay [9] the test system is MDA-MB-435.
Assay [10] deals with OVCAR-5.
Assay [11] relates to OVCAR-8.
Assay [12] has as its system RXF 393.
Assay [13] concerns SF-295.
The subject of assay [14] is SK-MEL-28.
Assay [15] concerns SK-OV-3.
The subject of assay [16] is T47D.
Assay [17] concerns TK-10.
Assay [18] concerns UACC-257.
In assay [19] the test system is CCRF-CEM.

Here are results for eleven compounds from ChEMBL document CHEMBL1201862, “PubChem BioAssay data set” (2004).

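Five concentrations, 48 hours, 96-well plates. At the GI50, growth is halved.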 Activity calls are given as the source filed them. Cut-off read from the data, not from the text of the source: active = GI50 up to about 1.1 µM and inactive = higher. Bounds are passed on as bounds.

Turning to `Nc1nc(SCc2ccccc2)c2ncn(Cc3ccccc3)c2n1`, the GI50 in assay [1] is > 100 µM (inactive); in [2] it was > 100 µM (inactive); in [3], > 100 µM (inactive); in assay [4], > 100 µM (inactive); in assay [5], > 87.3 µM (inactive); in [6], > 100 µM (inactive). Further, the GI50 in [7] is > 100 µM (inactive); in [8], > 90.8 µM (inactive); in assay [9], > 71.8 µM (inactive); in [10], > 100 µM (inactive); in assay [11], > 100 µM (inactive); in assay [12], 62.2 µM (inactive). The GI50 in assay [13] was > 100 µM (inactive); in assay [14], > 100 µM (inactive); in [15] it was > 100 µM (inactive); in assay [16], > 47.6 µM (inactive); in assay [17], > 100 µM (inactive); in assay [18], > 71 µM (inactive).
With `CSc1nn(C)cc2nc(C)nc1-2`, the GI50 in [1], in assay [19], in [2], in assay [3], in assay [4] and in [5] was > 100 µM (inactive) throughout. Moreover, the GI50 in [7], in assay [8], in assay [9], in [10], in [11] and in [12] was > 100 µM (inactive) in each case. Besides, the GI50 in [13], in assay [14], in assay [16], in assay [17] and in [18] was > 100 µM (inactive) in each case.
Turning to `S=C1NC2=C(COc3ccccc32)C(c2ccc(Cl)cc2)N1` (configuration not stated), the GI50 is 22.9 µM (inactive) in assay [1]; 21.3 µM (inactive) in assay [19]; 19.9 µM (inactive) in assay [2]; 17.1 µM (inactive) in [3]; 17.1 µM (inactive) in assay [4]; 15.6 µM (inactive) in [5]. In addition, the GI50 is 16.3 µM (inactive) in [6]; 18.7 µM (inactive) in assay [7]; 19.1 µM (inactive) in assay [8]; 24 µM (inactive) in assay [9]; 16.3 µM (inactive) in assay [10]; 21.6 µM (inactive) in [11]. The GI50 is 15.5 µM (inactive) in [12]; 13.8 µM (inactive) in assay [13]; 21.9 µM (inactive) in assay [14]; 19.6 µM (inactive) in assay [15]; 18.2 µM (inactive) in [16]; 21.2 µM (inactive) in assay [18].
Turning to `COc1cc(C2c3cc4c(cc3C(=O)C3CCC(=O)N32)OCO4)cc(OC)c1O` (configuration not stated), the GI50 in [1], in assay [19], in [2], in assay [3], in assay [4] and in [5] was > 50 µM (inactive) throughout. Also, the GI50 in [7], in [8], in assay [9], in assay [10], in [11] and in [12] was > 50 µM (inactive) each time. Also, the GI50 in [13], in assay [14], in assay [15], in assay [16] and in assay [18] was > 50 µM (inactive) throughout.
Consider `Cc1[nH]c2ncn3ncnc3c2c1Cc1ccccc1`, for which the GI50 in assay [1], in [19], in assay [2], in [3], in [4] and in [7] was > 100 µM (inactive) in each case. The GI50 in assay [8] was > 100 µM (inactive); in assay [9], > 100 µM (inactive); in assay [10], > 100 µM (inactive); in [11], > 100 µM (inactive); in assay [12] it was 50 µM (inactive); in assay [13], > 100 µM (inactive). Also, the GI50 in assay [14], in assay [15], in [16], in [17] and in assay [18] was > 100 µM (inactive) in each case.
In the case of `O=C(Nc1ccc(N=C=S)cc1Cl)c1cc(Br)cc(Br)c1O`, the GI50 in [1] was 27 µM (inactive); in assay [2], 15.9 µM (inactive); in assay [4] it was 30.6 µM (inactive); in assay [5], 32.8 µM (inactive); in assay [7], 33.7 µM (inactive); in assay [8] it was 31.5 µM (inactive). Further, the GI50 was 28.1 µM (inactive) in assay [9]; 23.7 µM (inactive) in assay [10]; 18.2 µM (inactive) in assay [11]; 43.9 µM (inactive) in assay [12]; 31.1 µM (inactive) in assay [13]; 30.4 µM (inactive) in [14]. Besides, the GI50 in assay [15] was 42.9 µM (inactive); in [16], 39.7 µM (inactive); in assay [17], 27.9 µM (inactive); in [18] it was 21.4 µM (inactive).
For the compound `C[n+]1c2ccccc2n2c3ccccc3c(NCc3ccco3)c(C#N)c21`, the GI50 in [1] is 1.46 µM (inactive); in [2], 3.09 µM (inactive); in [3], 2.78 µM (inactive); in assay [4], 1.46 µM (inactive); in assay [5], 1.49 µM (inactive); in assay [6], 1.05 µM (active). In addition, the GI50 in assay [7] was 2.3 µM (inactive); in [8] it was 0.575 µM (active); in assay [9], 1.76 µM (inactive); in [10], 2.12 µM (inactive); in assay [11] it was 1.24 µM (inactive); in assay [12], 1.65 µM (inactive). Also, the GI50 is 2.67 µM (inactive) in assay [13]; 1.99 µM (inactive) in assay [14]; 3.85 µM (inactive) in assay [15]; 3.67 µM (inactive) in assay [16]; 1.52 µM (inactive) in [17]; 3.48 µM (inactive) in [18].
As to `CCOC(=O)c1cc(C)nc2c1c(=O)n(-c1ccccc1)c(=O)n2CCCCN1CCN(c2ccccc2)CC1`, the GI50 is 58.1 µM (inactive) in assay [1]; > 100 µM (inactive) in [2]; > 100 µM (inactive) in assay [3]; > 100 µM (inactive) in [4]; 24.9 µM (inactive) in assay [5]; 61.1 µM (inactive) in assay [6]. The GI50 in [7] was 38.9 µM (inactive); in [8], 28.3 µM (inactive); in assay [9], > 100 µM (inactive); in assay [10], > 100 µM (inactive); in assay [11], > 100 µM (inactive); in assay [12], > 100 µM (inactive). Also, the GI50 in assay [13] was > 100 µM (inactive); in assay [14] it was > 100 µM (inactive); in assay [15], > 100 µM (inactive); in [16], 24.3 µM (inactive); in [17] it was > 100 µM (inactive); in assay [18], 27.8 µM (inactive).
For the compound `CC(=O)OCC1OC(n2c(C)c(/N=N/c3ccc(Cl)cc3)c(C)c(C#N)c2=S)C(OC(C)=O)C(OC(C)=O)C1OC(C)=O` (configuration not stated), the GI50 in [1] is 58.1 µM (inactive); in [19], > 100 µM (inactive); in assay [2], 73.3 µM (inactive); in [4], 22.8 µM (inactive); in assay [5], > 100 µM (inactive); in assay [6], 86.3 µM (inactive). The GI50 in assay [7] is > 100 µM (inactive); in assay [8], > 100 µM (inactive); in assay [9] it was > 100 µM (inactive); in assay [10], 31.8 µM (inactive); in assay [12], 18.2 µM (inactive); in assay [13], 25.1 µM (inactive). The GI50 is > 100 µM (inactive) in assay [14]; 36.3 µM (inactive) in assay [15]; > 100 µM (inactive) in [16]; 40.5 µM (inactive) in [17]; 62.8 µM (inactive) in assay [18].
As for `O=C(O)C[n+]1cn(NC(=O)Cc2ccccc2)cn1`, the GI50 in assay [1] was > 10 µM (inactive); in [19] it was > 10 µM (inactive); in [2], > 10 µM (inactive); in assay [3], 7.16 µM (inactive); in assay [4] it was > 10 µM (inactive); in assay [5], > 10 µM (inactive). The GI50 in assay [6], in [7], in assay [8], in assay [9], in assay [10] and in assay [11] was > 10 µM (inactive) in each case. For the same compound, the GI50 in assay [13], in assay [14], in assay [15], in [16], in assay [17] and in assay [18] was > 10 µM (inactive) throughout.
As to `CCCCOC(=O)C(O)Cc1ccoc1` (configuration not stated), the GI50 in assay [1], in [19], in assay [2], in assay [3], in assay [4] and in assay [5] was > 100 µM (inactive) throughout. Further, the GI50 in assay [6], in assay [7], in [8], in [9], in [10] and in assay [11] was > 100 µM (inactive) each time. Besides, the GI50 in assay [12], in assay [13], in assay [14], in [15], in assay [16] and in assay [17] was > 100 µM (inactive) each time.
